# Reference: patent US4081533A, “Method of reducing mammalian fertility and drugs therefor” (Regents of the University of California, priority 1976, dated 1978)
# Entries after “also recorded” stand apart in the source; their conditions may differ. Counter-ions that a name gives are not always drawn. Like-named read-outs stand apart in the source and are kept apart here. Positions of bridges follow the written chain, without caps; N, C: chain ends. Residues, ends and D or L forms follow the SMILES beside them.
# Tests used:
# preovulatory surge of LH = experiment: Pre-ovulatory LH surge in proestrus rats (hourly blood samples, radioimmunoassay); assay type: in vivo, rat; conditions: for LH surge and ovulation inhibitory effect (in words): administered prior to ovulation, rats
# Protocol: (§1) These subjects were administered various dosages of the peptides of the invention as well as control materials, i.e., saline solution alone, and the naturally occuring peptides, vasopressin and oxytocin, that are related to the cyclic nonapeptide, 8-arginine vasotocin. Both vasopressin and oxytocin are well documented in the literature. Vasopressin is very closely related to 8-arginine vastocin, and has the cyclic nonapeptide structure: [drawing 2] wherein the 3rd amino acid moiety is phenylalanine rather than isoleucine that occurs in the 8-arginine vasotocin. In all other respects the vasopressin peptide chain is identical to 8-arginine vasotocin. Vasopressin is found in the posterior lobe of the pituitary gland.
# (§2) More specifically, in normal cycling female rats there is a dramatic surge in the level of luteinizing hormone (LH) in the blood on the afternoon of proestrus. This surge of LH can be detected by monitoring periodic blood samples. These samples are secured by inserting a cannula into the right atrium of the heart. 50 microliters of blood are withdrawn each hour for some 6 to 7 samples. The levels of LH therein is determined using radioimmunossay techniques. Under normal circumstances, ovulation occurs about 12 hours later. The oviducts are then removed and the ova are recovered therefrom by inserting a hypodermic into the tubal ostium and flushing with phosphate-buffered saline. Freed ova are collected in a micropipette and counted. In the tests, the normal cycling rats were administered both control saline, and various dosages of 8-arginine vasotocin, prolyl-arginyl-glycinamide, prolyl-lysyl-glycinamide, vasopressin and oxytocin.
# (§3) In every instance, the peptide dosage was administered in saline via heart cannula at one hour intervals over a 4 hour period.
# ovulation = experiment: Ovulation in proestrus rats (ova flushed from oviducts and counted); assay type: in vivo, rat
# Protocol: as §1, §2, §3
# [1] = tested on: Pre-Ovulatory Surge of Prolactin; experiment: Pre-ovulatory surge of prolactin in rats; assay type: in vivo, rat; conditions: for Inhibitory effect on prolactin surge (in words): summary of Table II
# Protocol: 8-arginine vasotocin, vasopressin, and oxytocin were administered at various dosage levels and rates to a number of rats. Saline solution was utilized as a control.
# [2] = rat, in vivo
# Description: The level of nonapeptide or tripeptide in the body fluids necessary to inhibit the LH surge and subsequent ovulation will vary from species to species and from individual to individual. In this regard, however, the nonapeptide does appear to have at least 50-100 times the activity, on a weight basis, of the tripeptide. Therefore, effective dosage levels of the tripeptides are necessarily higher than the nonapeptides, by as much as two or three orders of magnitude. On the other hand, the tripeptide, being a much simpler molecular, is more easily metabolized, and the higher dosage requirements are easily tolerated and produce no side effects. […] A technique similar to that disclosed herein for the synthesis of the tripeptide may be utilized; although it will be recognized that the production of a nine membered peptide will be considerably more costly and time consuming that the production of the tripeptide. But such synthesis techniques are available to secure the 8-arginine vasotocin utilized in the present invention.
# [3] = reason given for unsuitability in the method; cited from earlier work
# [4] = dihydrochloride form, dosage 1 μg, same conditions as Table I
# [5] = dosage 1μg/120 min, total dose 2 μg
# [6] = dosage 1μ/30 min, total dose 7 μg
# [7] = proestrus rats, dosage 0.1 μg in saline via heart cannula at one hour intervals over a 4 hour period, acetate salt
# [8] = proestrus rats, dosage 1.0 μg in saline via heart cannula at one hour intervals over a 4 hour period, acetate salt
# [9] = proestrus rats, dosage 5.0 μg in saline via heart cannula at one hour intervals over a 4 hour period, acetate salt
# [10] = proestrus rats, dosage 0.6 mg in saline via heart cannula at one hour intervals over a 4 hour period, acetate salt
SMILES,"Presence of Prolactin Surge (%) [1, 5]","Presence of Prolactin Surge (%) [1, 6]",Inhibitory effect on prolactin surge (in words) [1],LH surge and ovulation inhibitory effect (in words) (preovulatory surge of LH),Presence of LH Surges (%) (preovulatory surge of LH; [7]),Presence of LH Surges (%) (preovulatory surge of LH; [8]),Presence of Ova (%) (ovulation; [7]),Presence of Ova (%) (ovulation; [8]),Presence of LH Surges (%) (preovulatory surge of LH; [10]),Presence of Ova (%) (ovulation; [10]),other results
CC[C@H](C)[C@@H]1NC(=O)[C@H](Cc2ccc(O)cc2)NC(=O)[C@@H](N)CSSC[C@@H](C(=O)N2CCC[C@H]2C(=O)N[C@@H](CCCNC(=N)N)C(=O)NCC(N)=O)NC(=O)[C@H](CC(N)=O)NC(=O)[C@H](CCC(N)=O)NC1=O [8-arginine vasotocin-dihydrochloride] (H-CYIQNCPRG-NH2; disulfide 1-6),,,,,,,,,,,Presence of LH Surges (%) (preovulatory surge of LH; [4]): 0%; Presence of Ova (%) (ovulation; [4]): 20%
"CC[C@H](C)[C@@H]1NC(=O)[C@H](Cc2ccc(O)cc2)NC(=O)[C@@H](N)CSSC[C@@H](C(=O)N2CCC[C@H]2C(=O)N[C@@H](CCCNC(=N)N)C(=O)NCC(N)=O)NC(=O)[C@H](CC(N)=O)NC(=O)[C@H](CCC(N)=O)NC1=O [8-arginine-Vasotocin, 8-arginine vasotocin] (H-CYIQNCPRG-NH2; disulfide 1-6)",0%,4%,high inhibitory effect,effectively blocked,34%,5%,45%,22%,,,"Presence of Prolactin Surge (%) ([1]; dosage 1μg/240 min, total dose 5 μg): 80%; Presence of Prolactin Surge (%) ([1]; dosage 1μ/60 min, total dose 4 μg): 14%; Effect on basal levels of luteinizing hormone in the blood (preovulatory surge of LH; basal LH, not the surge): does not appear to suppress the basal levels; Activity of the nonapeptide relative to the tripeptide (preovulatory surge of LH; on a weight basis): 50-100 times"
"CC[C@H](C)[C@@H]1NC(=O)[C@H](Cc2ccc(O)cc2)NC(=O)[C@@H](N)CSSC[C@@H](C(=O)N2CCC[C@H]2C(=O)N[C@@H](CC(C)C)C(=O)NCC(N)=O)NC(=O)[C@H](CC(N)=O)NC(=O)[C@H](CCC(N)=O)NC1=O [Oxytocin, reference compound]",84%,60%,the lowest effect,essentially inactive,,100%,,100%,,,Presence of LH Surges (%) (preovulatory surge of LH; [9]): 94%; Presence of Ova (%) (ovulation; [9]): 94%
"N=C(N)NCCC[C@H](NC(=O)[C@@H]1CCCN1)C(=O)NCC(N)=O [Prolyl-arginyl-glycinamide, prolyl-arginyl-glycinamide] (H-Pro-Arg-Gly-NH2)",,,,exhibits a similar luteinizing hormone suppressing effect that also inhibits ovulation; also recorded: high inhibition of the LH surge and ovulation,,,,,25%,42%,Side effects [2]: no noticable side effects
"NCCCC[C@H](NC(=O)[C@@H]1CCCN1)C(=O)NCC(N)=O [Prolyl-lysyl-glycinamide, prolyl-lysyl-glycinamide] (H-Pro-Lys-Gly-NH2)",,,,,,,,,15%,30%,LH surge and ovulation inhibitory effect (in words) (preovulatory surge of LH; listed as Prolyl-Lysyl-Glycinamide): exhibits luteinizing hormone suppressing and anovulatory properties; LH surge and ovulation inhibitory effect (in words) (preovulatory surge of LH; listed as prolyl-lysyl-glycinamide): high inhibition of the LH surge and ovulation
"NC(=O)CC[C@@H]1NC(=O)[C@H](Cc2ccccc2)NC(=O)[C@H](Cc2ccc(O)cc2)NC(=O)[C@@H](N)CSSC[C@@H](C(=O)N2CCC[C@H]2C(=O)N[C@@H](CCCN=C(N)N)C(=O)NCC(N)=O)NC(=O)[C@H](CC(N)=O)NC1=O [Vasopressin, reference compound]",57%,17%,a lesser effect,considerable activity,94%,37%,94%,62%,,,Side effects [3]: severe vasocontrictive side effects
